{
  "source": "ChEMBL document CHEMBL5380843",
  "about": "(J Med Chem, 2023)",
  "key": {"[1]": {"target": "Voltage-gated inwardly rectifying potassium channel KCNH2 (Homo sapiens, UniProt Q12809)", "sequence (Q12809 whole entry)": "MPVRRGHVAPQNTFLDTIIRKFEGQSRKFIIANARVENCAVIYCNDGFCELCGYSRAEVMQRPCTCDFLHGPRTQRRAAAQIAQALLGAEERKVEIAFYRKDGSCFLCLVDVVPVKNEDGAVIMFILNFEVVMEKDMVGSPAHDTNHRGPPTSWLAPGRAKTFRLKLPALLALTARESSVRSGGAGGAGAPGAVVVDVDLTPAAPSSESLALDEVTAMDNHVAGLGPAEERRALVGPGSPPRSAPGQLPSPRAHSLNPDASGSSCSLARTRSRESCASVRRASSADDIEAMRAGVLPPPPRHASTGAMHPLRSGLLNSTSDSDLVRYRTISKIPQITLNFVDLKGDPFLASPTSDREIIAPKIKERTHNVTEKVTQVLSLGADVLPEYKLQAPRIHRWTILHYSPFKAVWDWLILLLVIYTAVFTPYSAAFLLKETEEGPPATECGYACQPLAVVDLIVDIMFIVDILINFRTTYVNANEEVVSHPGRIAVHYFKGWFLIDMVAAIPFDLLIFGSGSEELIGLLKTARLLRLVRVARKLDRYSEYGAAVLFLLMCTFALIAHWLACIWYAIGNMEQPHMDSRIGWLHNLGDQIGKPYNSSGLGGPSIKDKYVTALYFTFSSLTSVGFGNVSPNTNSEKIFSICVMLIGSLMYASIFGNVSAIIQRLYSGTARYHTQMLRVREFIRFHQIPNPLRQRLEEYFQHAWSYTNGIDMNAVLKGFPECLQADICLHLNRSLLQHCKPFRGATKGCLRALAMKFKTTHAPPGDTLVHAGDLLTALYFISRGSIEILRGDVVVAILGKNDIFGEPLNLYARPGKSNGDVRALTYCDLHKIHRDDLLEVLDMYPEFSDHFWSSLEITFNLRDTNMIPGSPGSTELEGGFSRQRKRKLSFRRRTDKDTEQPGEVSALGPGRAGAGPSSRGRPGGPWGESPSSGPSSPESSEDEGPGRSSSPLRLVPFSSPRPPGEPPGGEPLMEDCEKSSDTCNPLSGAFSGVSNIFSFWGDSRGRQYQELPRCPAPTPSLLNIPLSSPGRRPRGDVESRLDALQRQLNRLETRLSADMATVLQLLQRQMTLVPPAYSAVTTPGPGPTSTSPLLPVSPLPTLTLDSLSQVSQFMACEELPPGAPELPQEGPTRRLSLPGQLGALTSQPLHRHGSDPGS", "assay": "Inhibition of hERG expressed in CHO cells by Qpatch assay", "type": "toxicity, cell-based"}, "[2]": {"test_system": "Human immunodeficiency virus 1", "assay": "Antiviral activity against wild type HIV-1 IIIB harboring reverse transcriptase […] mutant infected in human MT4 cells assessed as protection against virus-induced cytopathic effect incubated for 5 days by MTT assay", "type": "functional, organism-based", "details": "Human immunodeficiency virus 1, IIIB, MT4, 120 h"}, "[3]": {"assay": "Tmax in Sprague-Dawley rat at 10 mg/kg, po measured upto 24 hrs by LC-MS/MS analysis", "type": "ADME, organism-based", "details": "in vivo"}, "[4]": {"assay": "Cmax in Sprague-Dawley rat at 10 mg/kg, po measured upto 24 hrs by LC-MS/MS analysis", "type": "ADME, organism-based", "parameters": "time < 24 hrs, dose 10 mg/kg, route po", "details": "in vivo"}, "[5]": {"target": "Human immunodeficiency virus type 1 reverse transcriptase (Human immunodeficiency virus 1, UniProt Q72547)", "assay": "Inhibition of recombinant wild type HIV-1 reverse transcriptase using DNA/RNA as substrate incubated for 40 mins by Pico-green dye based spectrofluorometric analysis"}, "[6]": {"assay": "Oral bioavailability in Sprague-Dawley rat at 10 mg/kg measured upto 24 hrs by LC-MS/MS analysis", "type": "ADME, organism-based", "details": "in vivo"}, "[7]": {"assay": "Acute toxicity in 12 hr fasted male CD-1(ICR) mouse assessed as pathological damage in heart at 2 g/Kg, IG measured after 14 days by H and E staining based analysis", "type": "tissue-based", "details": "in vivo, po, 2000 mg/kg, 336 h, time 14 day"}, "[8]": {"assay": "Acute toxicity in 12 hr fasted female CD-1(ICR) mouse assessed as pathological damage in kidney at 2 g/Kg, IG measured after 14 days by H and E staining based analysis", "type": "tissue-based", "details": "in vivo, po, 2000 mg/kg, 336 h, time 14 day"}, "[9]": {"assay": "Acute toxicity in 12 hr fasted male CD-1(ICR) mouse assessed as pathological damage in brain at 2 g/Kg, IG measured after 14 days by H and E staining based analysis", "type": "tissue-based", "details": "in vivo, po, 2000 mg/kg, 336 h, time 14 day"}, "[10]": {"assay": "Resistant factor, ratio of EC50 for antiviral activity against HIV-1 IIIB harboring reverse transcriptase K103N mutant to EC50 for antiviral activity against wild type HIV-1 IIIB", "type": "functional"}, "[11]": {"assay": "MRT (0 to infinity) in Sprague-Dawley rat at 10 mg/kg, po measured upto 24 hrs by LC-MS/MS analysis", "type": "ADME, organism-based", "details": "in vivo"}, "[12]": {"assay": "Acute toxicity in 12 hr fasted male CD-1 (ICR) mouse assessed as death at 2 g/Kg, IG measured after 14 days", "details": "in vivo, po, 2000 mg/kg, 336 h, time 14 day"}, "[13]": {"assay": "Acute toxicity in 12 hr fasted female CD-1(ICR) mouse assessed as pathological damage in spleen at 2 g/Kg, IG measured after 14 days by H and E staining based analysis", "type": "tissue-based", "details": "in vivo, po, 2000 mg/kg, 336 h, time 14 day"}, "[14]": {"assay": "MRT (0 to t) in Sprague-Dawley rat at 1 mg/kg, iv measured upto 24 hrs by LC-MS/MS analysis", "type": "ADME, organism-based", "details": "in vivo"}, "[15]": {"test_system": "Human immunodeficiency virus 1", "assay": "Antiviral activity against wild type HIV-1 IIIB harboring reverse transcriptase K103N mutant infected in human MT4 cells assessed as protection against virus-induced cytopathic effect incubated for 5 days by MTT assay", "type": "functional, organism-based", "details": "Human immunodeficiency virus 1, IIIB, MT4, 120 h"}, "[16]": {"assay": "Acute toxicity in 12 hr fasted male CD-1(ICR) mouse assessed as pathological damage in spleen at 2 g/Kg, IG measured after 14 days by H and E staining based analysis", "type": "tissue-based", "details": "in vivo, po, 2000 mg/kg, 336 h, time 14 day"}, "[17]": {"assay": "Acute toxicity in 12 hr fasted female CD-1(ICR) mouse assessed as pathological damage in brain at 2 g/Kg, IG measured after 14 days by H and E staining based analysis", "type": "tissue-based", "details": "in vivo, po, 2000 mg/kg, 336 h, time 14 day"}, "[18]": {"assay": "Acute toxicity in 12 hr fasted female CD-1(ICR) mouse assessed as changes in body weight at 2 g/Kg, IG measured after 14 days", "details": "in vivo, po, 2000 mg/kg, 336 h, time 14 day"}, "[19]": {"assay": "Resistant factor, ratio of EC50 for antiviral activity against HIV-1 IIIB harboring reverse transcriptase E138K mutant to EC50 for antiviral activity against wild type HIV-1 IIIB", "type": "functional"}, "[20]": {"assay": "Acute toxicity in 12 hr fasted female CD-1(ICR) mouse assessed as behavioral abnormalities at 2 g/Kg, IG measured after 14 days", "details": "in vivo, po, 2000 mg/kg, 336 h, time 14 day"}, "[21]": {"assay": "Tmax in Sprague-Dawley rat at 1 mg/kg, iv measured upto 24 hrs by LC-MS/MS analysis", "type": "ADME, organism-based", "details": "in vivo"}, "[22]": {"assay": "Cmax in Sprague-Dawley rat at 1 mg/kg, iv measured upto 24 hrs by LC-MS/MS analysis", "type": "ADME, organism-based", "parameters": "time < 24 hrs, dose 1 mg/kg, route iv", "details": "in vivo"}, "[23]": {"assay": "Cytotoxicity against human MT4 cells assessed as reduction in cell viability incubated for 5 days by MTT assay", "type": "toxicity, cell-based", "details": "time 5 day"}},
  "data": [
    {"smiles": "CONC(=O)c1cnc(Nc2ccc(C#N)cc2)nc1Oc1c(C)cc(-c2ccc(C#N)cc2)cc1C", "values": [
      {"measurement": "IC50", "setting": "[1]", "value": "> 40000", "unit": "nM"},
      {"measurement": "EC50", "setting": "[2]", "value": 13, "unit": "nM"},
      {"measurement": "Tmax", "setting": "[3]", "value": 2, "unit": "h"},
      {"measurement": "Cmax", "setting": "[4]", "value": 616, "unit": "ng/mL"},
      {"measurement": "IC50", "setting": "[5]", "value": 47, "unit": "nM"},
      {"measurement": "bioavailability", "setting": "[6]", "value": 31.2, "unit": "%"},
      {"measurement": "Activity", "setting": "[7]", "value": "Non-Toxic"},
      {"measurement": "Activity", "setting": "[8]", "value": "Non-Toxic"},
      {"measurement": "Activity", "setting": "[9]", "value": "Non-Toxic"},
      {"measurement": "Ratio EC50", "setting": "[10]", "value": 3.5},
      {"measurement": "MRT inf", "setting": "[11]", "value": 5.21, "unit": "h"},
      {"measurement": "Activity", "setting": "[12]", "value": "Non-Toxic"},
      {"measurement": "Activity", "setting": "[13]", "value": "Non-Toxic"},
      {"measurement": "MRT last at 24 h", "setting": "[14]", "value": 3.56, "unit": "h"},
      {"measurement": "EC50", "setting": "[15]", "value": 8, "unit": "nM"},
      {"measurement": "Activity", "setting": "[16]", "value": "Non-Toxic"},
      {"measurement": "Activity", "setting": "[17]", "value": "Non-Toxic"},
      {"measurement": "Activity", "setting": "[18]", "value": "Non-Toxic"},
      {"measurement": "Ratio EC50", "setting": "[19]", "value": 2.6},
      {"measurement": "Activity", "setting": "[20]", "value": "Non-Toxic"},
      {"measurement": "Tmax", "setting": "[21]", "value": 4.98, "unit": "min"},
      {"measurement": "Cmax", "setting": "[22]", "value": 431, "unit": "ng/mL"},
      {"measurement": "CC50 at 120 h", "setting": "[23]", "value": "> 40800", "unit": "nM"}
    ]}
  ]
}
